Tested on: IRF pathway
Assay: Reporter gene expression assay for IRF axis in THP1-Dual cells (secreted Lucia luciferase)
Type: cell-based, human
Conditions: 20 hr stimulation, QUANTI-Luc, EC50 range, read-out: THP-IRF activity
Experimental: (§1) THP1-Dual™ cells (Invivogen) were derived from the human THP-1 monocyte cell line by stable integration of two inducible reporter constructs. As a result, THP1-Dual™ cells allow the simultaneous study of the NF-κB pathway, by monitoring the activity of secreted SEAP, and the IRF pathway, by assessing the activity of a secreted luciferase (Lucia). […] THP1-Dual™ cells were seeded in 384-well plates in growth medium and stimulated with novel compounds. After 20 hr of stimulation supernatant were removed and reporter proteins were readily measured in the cell culture supernatant using QUANTI-Blue™ (Invivogen), a SEAP detection reagent, and QUANTI-Luc™ (Invivogen), a luciferase detection reagent on a Spectramax i3X luminometer. EC50 value ranges for exemplary compounds tested in the above assay are given.

Row | Compound | EC50
1 | CC1(C#N)C(=O)N(Cc2cc(F)cc(F)c2)c2cc(C(=O)NCc3c(F)cc(F)cc3F)ccc21 (centres unmarked) [Example 163, 3-cyano-1-(3,5-difluorobenzyl)-3-methyl-2-oxo-N-(2,4,6-trifluorobenzyl)indoline-6-carboxamide] | 1 to 10 µM
2 | CC1(C#N)C(=O)N(Cc2cc(F)cc(F)c2)c2cc(C(=O)NCc3c(F)cc(F)cc3F)ccc21 (centres unmarked) [Example 167, 3-cyano-1-(3,5-difluorobenzyl)-3-methyl-2-oxo-N-(2,4,6-trifluorobenzyl)indoline-6-carboxamide] | 1 to 10 µM
3 | CC1(C#N)C(=O)N(Cc2cc(F)cc(F)c2)c2cc(C(=O)NCc3c(F)cc(F)cc3F)ccc21 (centres unmarked) [Example 168, 3-cyano-1-(3,5-difluorobenzyl)-3-methyl-2-oxo-N-(2,4,6-trifluorobenzyl)indoline-6-carboxamide] | > 10 µM

Target: T1, WT/R232 STING protein (Homo sapiens, UniProt Q86WV6, H232R)
T1 construct: host or cells: HEK293T
T1 sequence (Q86WV6 whole entry H232R): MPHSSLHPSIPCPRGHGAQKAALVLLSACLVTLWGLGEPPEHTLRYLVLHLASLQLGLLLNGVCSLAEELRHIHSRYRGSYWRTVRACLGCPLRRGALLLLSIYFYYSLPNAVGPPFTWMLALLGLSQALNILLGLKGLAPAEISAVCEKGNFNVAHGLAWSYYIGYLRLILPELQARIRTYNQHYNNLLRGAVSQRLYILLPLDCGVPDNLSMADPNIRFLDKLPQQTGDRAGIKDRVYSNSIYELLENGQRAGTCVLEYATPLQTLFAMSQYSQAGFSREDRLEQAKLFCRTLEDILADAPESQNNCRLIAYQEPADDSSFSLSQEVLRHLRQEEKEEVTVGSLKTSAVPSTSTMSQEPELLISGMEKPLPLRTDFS
Assay: Luciferase reporter assay in HEK293T-hSTING-Luciferase cells (R232)
Type: cell-based
Conditions: 20 hr stimulation, EC50 range
Outline: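 Readout is fold-induction over baseline of secreted luciferase, measured by luminescence after 20 hr compound stimulation. Cells: clonally selected HEK293T stably carrying hSTING (R232) and a luciferase reporter under five tandem ISREs fused to an ISG54 minimal promoter.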

Row | Compound | EC50
4 | CC1(C)C(=O)N(Cc2ccc(C(N)=O)cc2)c2cc(C(=O)NCc3c(F)cc(F)cc3F)ccc21 [Example 120, 1-(4-carbamoylbenzyl)-3,3-dimethyl-2-oxo-N-(2,4,6-trifluorobenzyl)indoline-6-carboxamide] | > 10 µM
5 | CC1(C)C(=O)N(Cc2c(F)cccc2Cl)c2cc(C(=O)NCc3cccs3)ccc21 [Example 7, 1-(2-chloro-6-fluorobenzyl)-3,3-dimethyl-2-oxo-N-(thiophen-2-ylmethyl)indoline-6-carboxamide] | 1 to 10 µM
6 | CC1C(=O)N(Cc2cc(F)cc(F)c2)c2cc(C(=O)NCc3c(F)cc(F)cc3F)ccc21 (centres unmarked) [Example 53, 1-(3,5-difluorobenzyl)-3-methyl-2-oxo-N-(2,4,6-trifluorobenzyl)indoline-6-carboxamide] | > 10 µM
7 | Cn1ncc2cccc(CN3C(=O)C(C)(C)c4ccc(C(=O)NCc5c(F)cc(F)cc5F)cc43)c21 [Example 96, 3,3-dimethyl-1-((1-methyl-1H-indazol-7-yl)methyl)-2-oxo-N-(2,4,6-trifluorobenzyl)indoline-6-carboxamide] | 1 to 10 µM
8 | O=C(NCc1ccco1)c1ccc2oc(=O)n(Cc3ccccc3F)c2c1 [Example 200, 3-(2-Fluorobenzyl)-N-(furan-2-ylmethyl)-2-oxo-2,3-dihydrobenzo[d]oxazole-5-carboxamide] | > 10 µM
9 | CC1(C)CN(C(=O)c2c(F)cccc2Cl)c2cc(C(=O)NCc3ccco3)ccc21 [Example 132, 1-(2-chloro-6-fluorobenzoyl)-N-(furan-2-ylmethyl)-3,3-dimethylindoline-6-carboxamide] | > 10 µM
10 | CC1(CCCO)C(=O)N(Cc2c(F)cccc2Cl)c2cc(C(=O)NCc3c(F)cc(F)cc3F)ccc21 (centres unmarked) [Example 177, 1-(2-chloro-6-fluorobenzyl)-3-(3-hydroxypropyl)-3-methyl-2-oxo-N-(2,4,6-trifluorobenzyl)indoline-6-carboxamide] | > 10 µM
11 | Cc1cc(CN2C(=O)C(C)(C)c3ccc(C(=O)NCc4ccc(C)o4)cc32)ccn1 [Example 55, 3,3-dimethyl-N-((5-methylfuran-2-yl)methyl)-1-((2-methylpyridin-4-yl)methyl)-2-oxoindoline-6-carboxamide] | > 10 µM
12 | CC1(CC(=O)O)C(=O)N(Cc2cc(F)cc(F)c2)c2cc(C(=O)NCc3c(F)cc(F)cc3F)ccc21 (centres unmarked) [Example 169, 2-(1-(3,5-difluorobenzyl)-3-methyl-2-oxo-6-((2,4,6-trifluorobenzyl)carbamoyl)indolin-3-yl)acetic acid] | > 10 µM
13 | O=C(NCc1ccco1)c1ccc2c(c1)N(Cc1ccccc1F)C(=O)C2(F)F [Example 133, 3.3-Difluoro-1-(2-fluorobenzyl)-N-(furan-2-ylmethyl)-2-oxoindoline-6-carboxamide] | > 10 µM
14 | Cc1cc(CN2C(=O)C(C)(C)c3ccc(C(=O)NCc4c(F)cc(F)cc4F)cc32)cc(C(F)(F)F)c1 [Example 15, 3,3-dimethyl-1-(3-methyl-5-(trifluoromethyl)benzyl)-2-oxo-N-(2,4,6-trifluorobenzyl)indoline-6-carboxamide] | 1 to 10 µM
15 | CC1C(=O)N(Cc2c(F)cccc2Cl)c2cc(C(=O)NCc3c(F)cc(F)cc3F)ccc21 (centres unmarked) [Example 21, 1-(2-chloro-6-fluorobenzyl)-3-methyl-2-oxo-N-(2,4,6-trifluorobenzyl)indoline-6-carboxamide] | > 10 µM
16 | CNC1(C)C(=O)N(Cc2cc(F)cc(F)c2)c2cc(C(=O)NCc3c(F)cc(F)cc3F)ccc21 (centres unmarked) [Example 145, 1-(3,5-Difluorobenzyl)-3-methyl-3-(methylamino)-2-oxo-N-(2,4,6-trifluorobenzyl)indoline-6-carboxamide] | 1 to 10 µM
17 | Cc1ccc(CNC(=O)c2ccc3c(c2)N(C(C)c2ccc(F)cc2)C(=O)C3(C)C)o1 (centres unmarked) [Example 123, 1-(1-(4-fluorophenyl)ethyl)-3,3-dimethyl-N-((5-methylfuran-2-yl)methyl)-2-oxoindoline-6-carboxamide] | 1 to 10 µM
18 | Cc1cccc(C)c1CN1C(=O)C(C)(C)c2ccc(C(=O)NCc3c(F)cc(F)cc3F)cc21 [Example 110, 1-(2,6-dimethylbenzyl)-3,3-dimethyl-2-oxo-N-(2,4,6-trifluorobenzyl)indoline-6-carboxamide] | 1 to 10 µM
19 | CC1(C)C(=O)N(Cc2cc(F)cc(F)c2)c2cc(C(=O)NCc3cccc(C#N)c3)ccc21 [Example 44, N-(3-cyanobenzyl)-1-(3,5-difluorobenzyl)-3,3-dimethyl-2-oxoindoline-6-carboxamide] | > 10 µM
20 | CC1(C)C(=O)N(Cc2cccc(C(N)=O)c2F)c2cc(C(=O)NCc3c(F)cc(F)cc3F)ccc21 [Example 79, 1-(3-carbamoyl-2-fluorobenzyl)-3,3-dimethyl-2-oxo-N-(2,4,6-trifluorobenzyl)indoline-6-carboxamide] | 1 to 10 µM
21 | Cc1cccc(F)c1CN1C(=O)C(C)(C)c2ccc(C(=O)NCc3ccc(F)cc3)nc21 [Example 194, 1-(2-fluoro-6-methylbenzyl)-N-(4-fluorobenzyl)-3,3-dimethyl-2-oxo-2,3-dihydro-1H-pyrrolo[2,3-b]pyridine-6-carboxamide] | 1 to 10 µM
22 | CC1(C)C(=O)N(Cc2cccc(F)c2)c2cc(C(=O)NCc3ccco3)ccc21 [Example 42, 1-(3-fluorobenzyl)-N-(furan-2-ylmethyl)-3,3-dimethyl-2-oxoindoline-6-carboxamide] | > 10 µM
23 | CC1(CCO)C(=O)N(Cc2cc(F)cc(F)c2)c2cc(C(=O)NCc3ccc(F)cc3F)ccc21 (centres unmarked) [Example 174, N-(2,4-difluorobenzyl)-1-(3,5-difluorobenzyl)-3-(2-hydroxyethyl)-3-methyl-2-oxoindoline-6-carboxamide] | > 10 µM
24 | CC1(C)C(=O)N(Cc2cccc(C(F)(F)F)c2)c2cc(C(=O)NCc3c(F)cc(F)cc3F)ccc21 [Example 17, 3,3-dimethyl-2-oxo-N-(2,4,6-trifluorobenzyl)-1-(3-(trifluoromethyl)benzyl)indoline-6-carboxamide] | 1 to 10 µM
25 | CN(C)C1(C)C(=O)N(Cc2c(F)cccc2Cl)c2cc(C(=O)NCc3c(F)cc(F)cc3F)ccc21 (centres unmarked) [Example 152, 1-(2-chloro-6-fluorobenzyl)-3-(dimethylamino)-3-methyl-2-oxo-N-(2,4,6-trifluorobenzyl)indoline-6-carboxamide] | 1 to 10 µM
26 | Cn1c(=O)n(Cc2ccccc2Cl)c2cc(C(=O)NCc3ccco3)ccc21 [Example 202, 3-(2-chlorobenzyl)-N-(furan-2-ylmethyl)-1-methyl-2-oxo-2,3-dihydro-1H-benzo[d]imidazole-5-carboxamide] | > 10 µM
27 | CC1(C)C(=O)N(Cc2c(F)ccc(O)c2Cl)c2cc(C(=O)NCc3c(F)cc(F)cc3F)ccc21 [Example 67, 1-(2-chloro-6-fluoro-3-hydroxybenzyl)-3,3-dimethyl-2-oxo-N-(2,4,6-trifluorobenzyl)indoline-6-carboxamide] | ≤ 1 µM
28 | CC1(C)C(=O)N(Cc2c(F)cc(O)cc2F)c2cc(C(=O)NCc3c(F)cc(F)cc3F)ccc21 [Example 65, 1-(2,6-difluoro-4-hydroxybenzyl)-3,3-dimethyl-2-oxo-N-(2,4,6-trifluorobenzyl)indoline-6-carboxamide] | ≤ 1 µM
29 | Cc1ccc(-c2nc(CN3C(=O)C(C)(C)c4ccc(C(=O)NCc5c(F)cc(F)cc5F)cc43)c(C)o2)cc1 [Example 129, 3,3-dimethyl-1-((5-methyl-2-(p-tolyl)oxazol-4-yl)methyl)-2-oxo-N-(2,4,6-trifluorobenzyl)indoline-6-carboxamide] | > 10 µM

Tested on: NF-κB pathway
Assay: Reporter gene expression assay for NFκB axis in THP1-Dual cells (secreted SEAP)
Type: cell-based, human
Conditions: 20 hr stimulation, QUANTI-Blue SEAP, EC50 range, read-out: THP-NFKB activity
Experimental: as §1

Row | Compound | EC50
30 | CC1(C#N)C(=O)N(Cc2cc(F)cc(F)c2)c2cc(C(=O)NCc3c(F)cc(F)cc3F)ccc21 (centres unmarked) [Example 163, 3-cyano-1-(3,5-difluorobenzyl)-3-methyl-2-oxo-N-(2,4,6-trifluorobenzyl)indoline-6-carboxamide] | 1 to 10 µM
31 | CC1(C#N)C(=O)N(Cc2cc(F)cc(F)c2)c2cc(C(=O)NCc3c(F)cc(F)cc3F)ccc21 (centres unmarked) [Example 167, 3-cyano-1-(3,5-difluorobenzyl)-3-methyl-2-oxo-N-(2,4,6-trifluorobenzyl)indoline-6-carboxamide] | 1 to 10 µM
32 | CC1(C#N)C(=O)N(Cc2cc(F)cc(F)c2)c2cc(C(=O)NCc3c(F)cc(F)cc3F)ccc21 (centres unmarked) [Example 168, 3-cyano-1-(3,5-difluorobenzyl)-3-methyl-2-oxo-N-(2,4,6-trifluorobenzyl)indoline-6-carboxamide] | > 10 µM

From US20200172483A1, “HETEROCYCLIC SMALL MOLECULE MODULATORS OF HUMAN STING” (Curadev Pharma Limited, priority 2017, published 2020)
